Experiment [1] addresses Cav2.2 in human SH-SY5Y cell membranes (Homo sapiens, UniProt Q00975). Briefly: biochemical. It is filed as binding. The settings on record: SEM.
Experiment [2] has as its target hCav2.2 (Homo sapiens, UniProt Q00975). Briefly: cell-based. The settings on record: SEM.

The structures appear in SMILES notation. Positions of bridges follow the written chain, without caps; N, C: chain ends. Non-standard residues stand in square brackets, D forms with d. Residues, ends and D or L forms follow the SMILES beside them. Hyp = O=C(O)[C@@H]1C[C@@H](O)CN1

hCav2.2, sequence (Q00975 whole entry, looked up): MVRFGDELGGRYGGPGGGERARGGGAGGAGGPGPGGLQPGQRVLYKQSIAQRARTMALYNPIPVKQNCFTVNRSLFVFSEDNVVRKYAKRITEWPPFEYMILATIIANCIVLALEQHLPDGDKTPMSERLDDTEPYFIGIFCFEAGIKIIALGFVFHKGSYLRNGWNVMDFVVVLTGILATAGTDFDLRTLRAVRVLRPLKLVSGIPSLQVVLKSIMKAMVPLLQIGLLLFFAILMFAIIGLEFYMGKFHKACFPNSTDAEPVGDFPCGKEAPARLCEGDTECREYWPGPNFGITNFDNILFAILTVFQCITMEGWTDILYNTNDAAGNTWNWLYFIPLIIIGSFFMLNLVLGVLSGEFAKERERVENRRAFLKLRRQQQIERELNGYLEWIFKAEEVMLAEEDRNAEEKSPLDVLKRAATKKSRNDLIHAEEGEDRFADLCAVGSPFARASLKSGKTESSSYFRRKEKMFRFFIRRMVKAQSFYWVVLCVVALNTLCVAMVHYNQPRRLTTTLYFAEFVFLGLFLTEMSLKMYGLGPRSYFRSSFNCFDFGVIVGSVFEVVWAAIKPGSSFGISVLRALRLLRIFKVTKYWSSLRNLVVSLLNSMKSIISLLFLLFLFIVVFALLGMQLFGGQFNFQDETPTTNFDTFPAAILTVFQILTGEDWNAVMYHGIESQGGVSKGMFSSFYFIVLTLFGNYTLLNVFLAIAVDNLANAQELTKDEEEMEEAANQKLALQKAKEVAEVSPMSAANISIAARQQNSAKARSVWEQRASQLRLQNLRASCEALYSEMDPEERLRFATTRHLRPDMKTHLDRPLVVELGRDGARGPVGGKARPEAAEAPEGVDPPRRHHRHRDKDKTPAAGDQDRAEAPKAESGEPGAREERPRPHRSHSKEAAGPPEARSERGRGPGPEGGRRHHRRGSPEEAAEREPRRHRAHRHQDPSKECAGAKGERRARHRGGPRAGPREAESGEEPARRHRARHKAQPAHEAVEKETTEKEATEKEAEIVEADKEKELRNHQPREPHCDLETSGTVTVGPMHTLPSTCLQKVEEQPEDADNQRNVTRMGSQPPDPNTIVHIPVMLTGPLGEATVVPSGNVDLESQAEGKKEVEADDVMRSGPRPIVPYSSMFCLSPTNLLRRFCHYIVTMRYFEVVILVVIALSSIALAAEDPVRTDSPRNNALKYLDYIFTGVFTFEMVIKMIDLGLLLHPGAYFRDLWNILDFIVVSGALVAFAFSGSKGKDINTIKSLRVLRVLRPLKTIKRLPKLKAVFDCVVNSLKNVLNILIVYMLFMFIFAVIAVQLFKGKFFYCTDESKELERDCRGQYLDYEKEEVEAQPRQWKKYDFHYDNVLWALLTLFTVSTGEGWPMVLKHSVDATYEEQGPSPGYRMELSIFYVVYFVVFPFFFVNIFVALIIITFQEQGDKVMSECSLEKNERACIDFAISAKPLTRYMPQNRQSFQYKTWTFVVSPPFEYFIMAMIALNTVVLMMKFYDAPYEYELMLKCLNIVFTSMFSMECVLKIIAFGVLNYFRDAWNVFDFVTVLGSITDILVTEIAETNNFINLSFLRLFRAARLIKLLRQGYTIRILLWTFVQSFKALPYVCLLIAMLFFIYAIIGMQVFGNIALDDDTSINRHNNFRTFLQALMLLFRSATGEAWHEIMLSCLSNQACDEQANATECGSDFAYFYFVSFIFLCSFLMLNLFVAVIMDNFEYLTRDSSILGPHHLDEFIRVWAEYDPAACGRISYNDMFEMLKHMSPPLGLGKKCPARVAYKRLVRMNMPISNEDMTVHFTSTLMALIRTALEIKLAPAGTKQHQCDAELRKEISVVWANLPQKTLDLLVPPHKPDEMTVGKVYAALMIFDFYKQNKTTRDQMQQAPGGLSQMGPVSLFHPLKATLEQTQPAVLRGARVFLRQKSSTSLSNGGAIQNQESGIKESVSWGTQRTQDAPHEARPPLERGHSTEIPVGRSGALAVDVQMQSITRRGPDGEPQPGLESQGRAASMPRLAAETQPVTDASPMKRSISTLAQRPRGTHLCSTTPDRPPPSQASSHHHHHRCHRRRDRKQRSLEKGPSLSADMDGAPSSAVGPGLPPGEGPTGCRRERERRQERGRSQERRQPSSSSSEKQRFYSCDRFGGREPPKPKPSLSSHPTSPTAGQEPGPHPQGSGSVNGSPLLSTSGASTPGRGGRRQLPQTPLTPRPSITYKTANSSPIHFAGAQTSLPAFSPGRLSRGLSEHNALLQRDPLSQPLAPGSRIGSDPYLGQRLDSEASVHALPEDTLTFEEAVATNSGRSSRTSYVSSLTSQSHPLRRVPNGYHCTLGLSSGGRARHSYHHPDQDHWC
Cav2.2 in human SH-SY5Y cell membranes, sequence (Q00975 whole entry, looked up): as above

For `CC[C@H](C)[C@@H]1NC(=O)[C@@H]2CSSC[C@@H]3NC(=O)[C@H](CCCCN)NC(=O)[C@H](CO)NC(=O)CNC(=O)[C@@H]4C[C@@H](O)CN4C(=O)[C@@H]4CCCN4C(=O)[C@H](CCCCN)NC(=O)[C@@H](N)CSSC[C@H](NC(=O)[C@H](CSSC[C@@H](C(=O)N[C@@H](CCCNC(=N)N)C(=O)N[C@@H](CCCCN)C(=O)N[C@@H](Cc4ccc(O)cc4)C(=O)N[C@@H](Cc4ccc(O)cc4)C(=O)O)NC(=O)[C@H](CCCNC(=N)N)NC(=O)[C@H](CCCCN)NC(=O)[C@H]([C@@H](C)O)NC(=O)[C@H](Cc4ccc(O)cc4)NC(=O)[C@H](CO)NC1=O)NC(=O)[C@H](CC(=O)O)NC(=O)[C@H](CCCNC(=N)N)NC(=O)[C@H](CCSC)NC(=O)[C@H](CO)NC(=O)[C@@H]1C[C@@H](O)CN1C(=O)[C@H](CO)NC3=O)C(=O)N[C@@H]([C@@H](C)O)C(=O)N[C@@H]([C@@H](C)O)C(=O)N2` [MoVIB] (H-CKP[Hyp]GSKCS[Hyp]SMRDCCTTCISYTKRCRKYY-OH; disulfide 1-16, 8-19, 15-26), the IC50 in experiment [1] was 0.365 ± 0.204 nM; in experiment [2] it was 600 ± 120 nM.
The corresponding values for `CC[C@H](C)[C@@H]1NC(=O)[C@@H]2CSSC[C@@H]3NC(=O)[C@H](CCCCN)NC(=O)[C@H](CO)NC(=O)CNC(=O)[C@@H]4C[C@@H](O)CN4C(=O)[C@@H]4CCCN4C(=O)[C@H](CCCCN)NC(=O)[C@@H](N)CSSC[C@H](NC(=O)[C@H](CSSC[C@@H](C(=O)N[C@@H](CCCNC(=N)N)C(=O)N[C@@H](CCCCN)C(=O)N[C@@H](Cc4ccc(O)cc4)C(=O)N[C@@H](Cc4ccc(O)cc4)C(=O)N[C@@H](CC(N)=O)C(=O)O)NC(=O)[C@H](CCCNC(=N)N)NC(=O)[C@H](CCCCN)NC(=O)[C@H]([C@@H](C)O)NC(=O)[C@H](Cc4ccc(O)cc4)NC(=O)[C@H](CO)NC1=O)NC(=O)[C@H](CC(=O)O)NC(=O)[C@H](CCCNC(=N)N)NC(=O)[C@H](CCSC)NC(=O)[C@H](CO)NC(=O)[C@@H]1C[C@@H](O)CN1C(=O)[C@H](CO)NC3=O)C(=O)N[C@@H]([C@@H](C)O)C(=O)N[C@@H]([C@@H](C)O)C(=O)N2` [MoVIA] (H-CKP[Hyp]GSKCS[Hyp]SMRDCCTTCISYTKRCRKYYN-OH; disulfide 1-16, 8-19, 15-26) are 0.035 ± 0.017 nM and 330 ± 18 nM.
Taken in the same sequence, the figures for `C[C@@H](O)[C@@H]1NC(=O)[C@H](Cc2ccc(O)cc2)NC(=O)[C@@H]2C[C@@H](O)CN2C(=O)[C@H](CC(N)=O)NC(=O)[C@@H]2CSSC[C@@H]3NC(=O)[C@H](CO)NC(=O)[C@H](CO)NC(=O)CNC(=O)[C@@H]4C[C@@H](O)CN4C(=O)[C@H](CO)NC(=O)[C@H](CCCCN)NC(=O)[C@@H](N)CSSC[C@H](NC(=O)[C@H](CSSC[C@@H](C(=O)N[C@@H](Cc4ccc(O)cc4)C(N)=O)NC(=O)[C@H](CCCN=C(N)N)NC(=O)[C@H](CCCCN)NC1=O)NC(=O)[C@H](CC(N)=O)NC(=O)[C@H](Cc1ccc(O)cc1)NC(=O)[C@H](CO)NC(=O)[C@H]([C@@H](C)O)NC(=O)[C@@H]1C[C@@H](O)CN1C(=O)[C@H](CO)NC3=O)C(=O)N[C@@H](CCCN=C(N)N)C(=O)N[C@@H](CO)C(=O)N2` [GVIA, reference compound] were 0.078 ± 0.012 nM and 170 ± 25 nM.

Values taken from PMC6128854 (Scientific Reports, 2018).
